Reference: ChEMBL document CHEMBL3244296, “3-Aryl- and 3-hydroxy-3-aryloctahydropyrido[2,1-c][1,4]oxazines. Synthesis, stereochemistry, and central nervous system pharmacological actions” (J Med Chem, 1978)
Calls of active or inactive are those of the source. No cut-off for these calls is given here.

Columns and labels:
[1] = system: Mus musculus; experiment: Neurotoxicity in ip dosed mouse assessed as time to reach peak effect by rotarod test; assay type: toxicity, organism-based; conditions: in vivo
[2] = Neurotoxicity in ip dosed mouse by rotarod test; assay type: toxicity, organism-based; conditions: in vivo
[3] = system: Mus musculus; experiment: Anticonvulsant activity in ip dosed mouse assessed as protection against maximal electroshock-induced seizures measured as lowest dose required for activity; assay type: functional; conditions: read-out: MED
[4] = system: Mus musculus; experiment: Anticonvulsant activity in mouse assessed as protection against subcutaneous metrazol-induced seizures at <= 300 mg/kg, ip; assay type: functional, organism-based; parameters: dose 300 mg/kg
[5] = system: Mus musculus; experiment: Reduction in spontaneous locomotor activity in mouse at 40 mg/kg, ip measured for 30 mins; assay type: functional, organism-based; parameters: dose 40 mg/kg
[6] = system: Mus musculus; experiment: Anticonvulsant activity in ip dosed mouse assessed as time to reach peak effect; assay type: functional
[7] = system: Rattus norvegicus; experiment: Anorexic activity in ip dosed Sprague-Dawley rat assessed as dose required to reduce food intake by 50%; assay type: functional
[8] = system: Rattus norvegicus; experiment: Anorexic activity in Sprague-Dawley rat assessed as reduction in food intake at 10 to 40 mmol/kg, ip; assay type: functional, organism-based
[9] = system: Mus musculus; experiment: Anticonvulsant activity in mouse assessed as protection against maximal electroshock-induced seizures at <= 300 mg/kg, ip; assay type: functional, organism-based; parameters: dose 300 mg/kg
[10] = system: Mus musculus; experiment: Anticonvulsant activity in ip dosed mouse assessed as protection against maximal electroshock-induced seizures; assay type: functional
[11] = Protective index, ratio of TD50 for neurotoxicity in ip dosed mouse to ED50 for anticonvulsant activity in ip dosed mouse; assay type: toxicity, organism-based; conditions: in vivo, read-out: Ratio TD50/ED50
[12] = system: Mus musculus; experiment: Stimulation of spontaneous locomotor activity in mouse at 20 mg/kg, ip measured for 30 mins relative to control; assay type: functional
[13] = system: Mus musculus; experiment: Anticonvulsant activity in ip dosed mouse assessed as protection against subcutaneous metrazol-induced seizures; assay type: functional; conditions: read-out: MED
[14] = system: Mus musculus; experiment: Reduction in spontaneous locomotor activity in mouse at 5 mg/kg, ip measured for 30 mins relative to control; assay type: functional; parameters: scale not given: the % may be the effect or the level left; conditions: route intraperitoneal
[15] = system: Mus musculus; experiment: Reduction in spontaneous locomotor activity in mouse at 20 mg/kg, ip measured for 30 mins relative to control; assay type: functional, organism-based; parameters: dose 20 mg/kg
[16] = system: Rattus norvegicus; experiment: Toxicity in Sprague-Dawley rat assessed as lethality at 20 to 40 mg/kg, ip; assay type: organism-based; parameters: dose 20-40 mg/kg, route intraperitoneal; conditions: in vivo
[17] = system: Rattus norvegicus; experiment: Anorexic activity in Sprague-Dawley rat assessed as reduction in food intake at […], ip relative to control; assay type: functional; parameters: scale not given: the % may be the effect or the level left
[18] = Toxicity in ip dosed mouse assessed as lethality; assay type: organism-based; conditions: in vivo
[19] = system: Rattus norvegicus; experiment: Anorexic activity in Sprague-Dawley rat assessed as reduction in food intake at 5 to 20 mmol/kg, ip; assay type: functional, organism-based

SMILES | minimal effective dose [3] | Activity [4] | Activity [5] | further results
Cl.OC1(c2ccccc2C(F)(F)F)CN2CCCCC2CO1 (configuration not stated) | 30 mg/kg | inactive | Active | Time [1]: 0.5 h; TD50 [2]: 547000 µmol/kg; Time [6]: 0.5 h
Cl.c1ccc(C2CN3CCCCC3CO2)cc1 (configuration not stated) | 100 mg/kg | inactive | Active | Activity [7]: 108.4 mmol/kg; Activity [8]: inactive
O=[N+]([O-])c1ccc(C2(O)CN3CCCCC3CO2)cc1 (configuration not stated) |  |  | inactive | 
OC1(c2ccc(Br)cc2)CN2CCCCC2CO1 (configuration not stated) |  |  | Active | 
Oc1ccc(C2CN3CCCCC3CO2)cc1 (configuration not stated) |  |  | Active | 
COc1ccc(C2(O)CN3CCCCC3CO2)cc1 (configuration not stated) |  | inactive | Active | Activity [9]: inactive
COc1cccc(C2CN3CCCCC3CO2)c1 (configuration not stated) |  |  | Active | 
CCC1(c2ccccc2)C(=O)N=C([O-])NC1=O.[Na+] (configuration not stated) [PHENOBARBITAL SODIUM] |  |  |  | ED50 [10]: 85700 µmol/kg; TD50 [2]: 333000 µmol/kg; selectivity ratio [11]: 3.88; Activity ([12]; route intraperitoneal): 215%
CCNC(C)Cc1cccc(C(F)(F)F)c1.Cl (configuration not stated) [FENFLURAMINE HYDROCHLORIDE] |  |  |  | Activity [7]: 16.8 mmol/kg
Cc1ccc(C2(O)CN3CCCCC3CO2)cc1.Cl (configuration not stated) | 100 mg/kg | inactive | Active | 
COc1cccc(C2(O)CN3CCCCC3CO2)c1.Cl (configuration not stated) | 100 mg/kg | inactive | Active | 
COc1ccc(C2CN3CCCCC3CO2)cc1 (configuration not stated) |  |  | Active | 
Brc1ccc(C2CN3CCCCC3CO2)cc1 (configuration not stated) |  |  | Active | 
COc1ccc(C2CN3CCCCC3CO2)cc1OC (configuration not stated) |  |  | Active | 
Cl.OC1(c2ccc(F)cc2)CN2CCCCC2CO1 (configuration not stated) | 100 mg/kg | inactive | Active | 
COc1cc(C2(O)CN3CCCCC3CO2)cc(OC)c1OC.Cl (configuration not stated) |  |  | Active | minimal effective dose [13]: 300 mg/kg; Activity [9]: inactive
Cc1ccc(C2CN3CCCCC3CO2)cc1 (configuration not stated) |  | inactive | Active | Activity [9]: inactive

SMILES | minimal effective dose [3] | Activity [4] | Activity [5] | further results
Cl.FC(F)(F)c1ccc(C2CN3CCCCC3CO2)cc1 (configuration not stated) | 30 mg/kg |  | Active | minimal effective dose [13]: 300 mg/kg; Time [1]: 0.5 h; TD50 [2]: 408000 µmol/kg; Time [6]: 0.5 h
Fc1ccc(C2CN3CCCCC3CO2)cc1 (configuration not stated) |  | inactive | Active | Activity [9]: inactive
CC(=O)Nc1ccc(C2CN3CCCCC3CO2)cc1 (configuration not stated) |  |  | Active | 
CN(C)CCCN1c2ccccc2Sc2ccc(Cl)cc21.Cl [CHLORPROMAZINE HYDROCHLORIDE] |  |  |  | Activity [14]: 83.6%
Oc1cccc(C2CN3CCCCC3CO2)c1 (configuration not stated) |  |  | inactive | Activity [15]: Active
Cl.Clc1ccc(C2CN3CCCCC3CO2)cc1 (configuration not stated) |  |  | Active | Activity [16]: Toxic; Activity [17]: 40%; Activity [8]: Active
COc1ccc(C2(O)CN3CCCCC3CO2)cc1OC.Cl (configuration not stated) |  |  | Active | minimal effective dose [13]: 100 mg/kg; Activity [9]: inactive
Cl.OC1(c2ccc(C(F)(F)F)cc2)CN2CCCCC2CO1 (configuration not stated) | 100 mg/kg | inactive | Active | Time [1]: 0.5 h; Time [6]: 0.5 h; LD50 [18]: 468000 µmol/kg; Activity [12]: Active
Cl.FC(F)(F)c1cccc(C2CN3CCCCC3CO2)c1 (configuration not stated) | 30 mg/kg | inactive | Active | Activity [7]: 55.9 mmol/kg; ED50 [10]: 84600 µmol/kg; Time [1]: 0.5 h; TD50 [2]: 263000 µmol/kg; selectivity ratio [11]: 3.11; Time [6]: 0.5 h; Activity [8]: Active
OC1(c2ccc(Cl)cc2)CN2CCCCC2CO1 (configuration not stated) |  |  | Active | Activity [8]: inactive
CC(=O)Oc1cccc(C2CN3CCCCC3CO2)c1 (configuration not stated) |  |  | inactive | 
Cl.FC(F)(F)c1ccccc1C1CN2CCCCC2CO1 (configuration not stated) | 30 mg/kg |  | Active | minimal effective dose [13]: 300 mg/kg; Time [1]: 0.5 h; TD50 [2]: 716000 µmol/kg; Time [6]: 0.5 h
Cl.OC1(c2ccccc2)CN2CCCCC2CO1 (configuration not stated) | 100 mg/kg | inactive | Active | 
Cl.OC1(c2cccc(C(F)(F)F)c2)CN2CCCCC2CO1 (configuration not stated) | 30 mg/kg | inactive | Active | Activity [7]: 29.6 mmol/kg; Activity [19]: Active; ED50 [10]: 78700 µmol/kg; Time [1]: 0.5 h; TD50 [2]: 218000 µmol/kg; selectivity ratio [11]: 2.77; Time [6]: 0.5 h
CC(=O)Oc1cccc(C2(O)CN3CCCCC3CO2)c1 (configuration not stated) |  |  | inactive | 
COc1cc(C2CN3CCCCC3CO2)cc(OC)c1OC (configuration not stated) |  |  | Active | 
